# Data from patent US9067894B1, “Compound, composition, and method of activating GIRK potassium channel and use of same for treating conditions of interest” (Vanderbilt University, priority 2013, dated 2015).
# Entries after “also recorded” stand apart in the source; their conditions may differ.
# How the values were obtained:
# Nicotinic acetylcholine = test: Radioligand displacement (Ricerca), second nicotinic entry; format: binding, human; details: 10 μM; second Nicotinic acetylcholine line
# GIRK2/3 = biological target: T1, GIRK2/3 (Homo sapiens, UniProt P48051+Q92806); test: Thallium flux assay, HEK-293 cells expressing GIRK2/3; format: cell-based; details: cell line GIRK2-3
# T1 construct: expressed in transfected cells; host or cells: HEK-293
# T1 sequence (P48051 1-423): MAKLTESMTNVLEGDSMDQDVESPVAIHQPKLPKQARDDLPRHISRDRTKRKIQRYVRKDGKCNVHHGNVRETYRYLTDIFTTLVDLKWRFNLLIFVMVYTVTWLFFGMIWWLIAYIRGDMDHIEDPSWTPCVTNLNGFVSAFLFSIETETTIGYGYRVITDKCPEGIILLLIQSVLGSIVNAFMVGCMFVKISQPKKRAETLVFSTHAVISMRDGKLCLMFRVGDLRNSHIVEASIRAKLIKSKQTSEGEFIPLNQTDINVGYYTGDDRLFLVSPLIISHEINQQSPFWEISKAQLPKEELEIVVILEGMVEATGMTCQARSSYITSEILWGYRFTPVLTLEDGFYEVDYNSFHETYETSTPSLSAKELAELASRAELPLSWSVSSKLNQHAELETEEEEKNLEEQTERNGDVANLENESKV
# T1 sequence (Q92806 1-393): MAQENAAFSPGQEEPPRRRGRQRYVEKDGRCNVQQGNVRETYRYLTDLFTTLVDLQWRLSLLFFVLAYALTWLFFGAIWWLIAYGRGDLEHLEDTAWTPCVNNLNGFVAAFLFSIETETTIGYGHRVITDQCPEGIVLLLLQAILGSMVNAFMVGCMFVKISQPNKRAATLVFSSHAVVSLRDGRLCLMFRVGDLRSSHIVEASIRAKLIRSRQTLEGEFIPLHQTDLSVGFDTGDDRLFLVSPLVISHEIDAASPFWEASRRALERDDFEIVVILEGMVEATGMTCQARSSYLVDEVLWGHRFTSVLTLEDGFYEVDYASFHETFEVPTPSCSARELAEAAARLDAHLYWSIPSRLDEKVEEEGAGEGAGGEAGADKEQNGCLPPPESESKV
# From the text: Cell Line Construction and Cell Culture. HEK-293 cells co-expressing human GIRK1/2 and rat mGlu8 were generated as previously described (Niswender et al., 2008). A HEK-293 cell line (ATCC, Manassas, Va.) expressing human GIRK1 and human GIRK2 was constructed by transfecting HEK-293 cells with GIRK1 and GIRK2 (Origene, Rockville, Md.) cloned into the pBudCE4.1 vector (Life Technologies, Carlsbad, Calif.) using FuGene 6 (Promega, Madison, Wis.) transfection reagent. Unless otherwise noted, other ion channel-expressing cells were prepared by transfecting HEK-293 cells with individual or combinations of subunits: GIRK1, pCMV6-A-BSD; GIRK2, pCMV6-A-puro; GIRK3, pCMV6-A-hygro; GIRK4, pCMV6-A-AC; Kv7.4, pIRESneo3. The Kir2.1 and hERG-expressing cell lines were made by transfecting T-REx-293 cells (Life Technologies, Carlsbad, Calif.) with Kir2.1 and Kv11.1, respectively, cloned into pcDNA5TO. Monoclonal cell lines were produced by limiting-dilution cloning of antibiotic-resistant cells and functional selection using the thallium flux assay described below. Unless otherwise noted, cells were maintained in Minimal Essential Medium, Alpha Medium (Mediatech, Manassas, Va.) supplemented with 10% fetal bovine serum (Sigma-Aldrich, Saint Louis, Mo.) and GlutaGro (Mediatech, Manassas, Va.), referred to henceforth as cell culture medium. […]
# Adrenergic α2A = biological target: T2, Adrenergic α2A (Homo sapiens, UniProt P08913); test: Radioligand displacement (Ricerca); format: binding
# T2 construct: Ricerca (contract assay)
# Tachykinin NK1 = biological target: T3, Tachykinin NK1 (Homo sapiens, UniProt P25103); test: Radioligand displacement (Ricerca); format: binding
# T3 construct: Ricerca (contract panel)
# Purinergic P2Y = test: Radioligand displacement (Ricerca); format: binding, rat; details: 10 μM
# Rolipram (PDE4) = test: Radioligand displacement (Ricerca); format: binding, human; details: 10 μM
# Adrenergic α1A = biological target: T4, Adrenergic α1A (Rattus norvegicus, UniProt P43140); test: Radioligand displacement (Ricerca); format: binding
# T4 construct: Ricerca (contract assay)
# Adenosine A1 = biological target: T5, Adenosine A1 (Homo sapiens, UniProt P30542); test: Radioligand displacement (Ricerca); format: binding
# T5 construct: Ricerca (contract assay)
# GABAB1A = biological target: T6, GABAB1A (Homo sapiens, UniProt Q9UBS5); test: Radioligand displacement (Ricerca); format: binding
# T6 construct: Ricerca
# EGF = biological target: T7, EGF (Homo sapiens, UniProt P00533); test: Radioligand displacement (Ricerca); format: binding
# T7 construct: Ricerca
# T7 sequence (P00533 25-1210): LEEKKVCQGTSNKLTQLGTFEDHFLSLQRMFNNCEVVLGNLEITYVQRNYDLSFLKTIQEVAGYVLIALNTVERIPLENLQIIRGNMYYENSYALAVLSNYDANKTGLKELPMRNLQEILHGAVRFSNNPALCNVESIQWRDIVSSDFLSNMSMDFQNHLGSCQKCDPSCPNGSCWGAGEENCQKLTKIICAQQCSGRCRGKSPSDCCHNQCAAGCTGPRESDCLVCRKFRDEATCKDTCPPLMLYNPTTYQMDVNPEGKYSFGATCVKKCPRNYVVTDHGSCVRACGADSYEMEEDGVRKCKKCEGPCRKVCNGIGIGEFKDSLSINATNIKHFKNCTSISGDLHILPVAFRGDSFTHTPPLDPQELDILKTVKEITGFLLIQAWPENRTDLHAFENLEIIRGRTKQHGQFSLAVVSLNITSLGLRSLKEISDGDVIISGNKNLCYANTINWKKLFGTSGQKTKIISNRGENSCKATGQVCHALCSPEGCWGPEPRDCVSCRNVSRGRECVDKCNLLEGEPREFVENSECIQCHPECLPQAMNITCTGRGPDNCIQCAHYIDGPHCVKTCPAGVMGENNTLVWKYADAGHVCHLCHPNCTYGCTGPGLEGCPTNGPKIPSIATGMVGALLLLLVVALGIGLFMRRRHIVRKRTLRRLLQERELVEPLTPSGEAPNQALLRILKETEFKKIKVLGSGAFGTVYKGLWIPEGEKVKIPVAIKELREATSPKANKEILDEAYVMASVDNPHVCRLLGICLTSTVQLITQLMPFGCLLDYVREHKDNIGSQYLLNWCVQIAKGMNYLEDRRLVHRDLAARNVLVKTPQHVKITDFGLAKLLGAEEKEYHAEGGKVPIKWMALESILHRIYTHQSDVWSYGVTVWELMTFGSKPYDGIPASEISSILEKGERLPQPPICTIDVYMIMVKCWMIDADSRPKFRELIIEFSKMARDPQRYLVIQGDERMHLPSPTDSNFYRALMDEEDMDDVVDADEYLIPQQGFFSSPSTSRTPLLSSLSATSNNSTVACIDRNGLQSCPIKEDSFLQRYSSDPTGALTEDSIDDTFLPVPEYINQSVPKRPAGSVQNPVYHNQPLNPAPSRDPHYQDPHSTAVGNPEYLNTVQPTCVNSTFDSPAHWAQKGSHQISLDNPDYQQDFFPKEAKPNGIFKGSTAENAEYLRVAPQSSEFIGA
# T2 sequence (P08913 whole entry): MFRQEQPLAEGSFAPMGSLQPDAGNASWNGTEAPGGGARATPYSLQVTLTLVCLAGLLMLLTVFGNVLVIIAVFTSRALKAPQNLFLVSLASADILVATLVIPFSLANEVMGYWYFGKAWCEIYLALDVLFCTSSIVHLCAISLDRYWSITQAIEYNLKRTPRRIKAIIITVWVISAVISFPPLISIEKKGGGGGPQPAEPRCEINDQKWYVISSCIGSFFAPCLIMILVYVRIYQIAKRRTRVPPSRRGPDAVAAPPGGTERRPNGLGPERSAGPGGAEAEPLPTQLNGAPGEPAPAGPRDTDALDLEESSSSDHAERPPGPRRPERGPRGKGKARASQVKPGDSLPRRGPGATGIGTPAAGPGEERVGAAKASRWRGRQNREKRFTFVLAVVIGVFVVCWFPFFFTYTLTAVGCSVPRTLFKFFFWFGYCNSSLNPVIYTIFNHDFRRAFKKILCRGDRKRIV
# T6 sequence (Q9UBS5 15-961 limits assumed): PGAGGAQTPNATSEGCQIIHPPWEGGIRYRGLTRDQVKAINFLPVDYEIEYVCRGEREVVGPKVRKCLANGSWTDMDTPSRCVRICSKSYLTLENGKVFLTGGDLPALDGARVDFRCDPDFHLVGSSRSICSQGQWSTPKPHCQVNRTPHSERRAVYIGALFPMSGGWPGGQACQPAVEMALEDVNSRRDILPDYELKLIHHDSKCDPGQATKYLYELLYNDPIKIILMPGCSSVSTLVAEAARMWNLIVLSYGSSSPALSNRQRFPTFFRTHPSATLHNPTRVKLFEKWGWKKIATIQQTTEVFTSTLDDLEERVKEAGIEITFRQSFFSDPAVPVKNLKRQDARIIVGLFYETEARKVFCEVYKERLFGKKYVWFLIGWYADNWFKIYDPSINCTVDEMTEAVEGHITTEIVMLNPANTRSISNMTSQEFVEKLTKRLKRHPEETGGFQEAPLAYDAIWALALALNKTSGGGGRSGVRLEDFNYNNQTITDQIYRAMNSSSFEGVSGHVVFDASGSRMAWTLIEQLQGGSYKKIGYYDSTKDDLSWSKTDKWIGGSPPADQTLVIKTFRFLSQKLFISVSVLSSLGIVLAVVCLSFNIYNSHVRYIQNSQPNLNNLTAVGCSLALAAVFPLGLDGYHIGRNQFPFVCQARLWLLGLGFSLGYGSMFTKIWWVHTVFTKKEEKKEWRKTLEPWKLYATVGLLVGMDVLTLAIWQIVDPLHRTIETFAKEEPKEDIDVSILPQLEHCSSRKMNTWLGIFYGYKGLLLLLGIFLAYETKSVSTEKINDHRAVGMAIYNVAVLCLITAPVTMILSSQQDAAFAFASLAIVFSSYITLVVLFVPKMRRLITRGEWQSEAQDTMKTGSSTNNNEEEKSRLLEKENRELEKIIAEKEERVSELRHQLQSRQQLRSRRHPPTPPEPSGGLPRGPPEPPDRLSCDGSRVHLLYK
# T3 sequence (P25103 whole entry): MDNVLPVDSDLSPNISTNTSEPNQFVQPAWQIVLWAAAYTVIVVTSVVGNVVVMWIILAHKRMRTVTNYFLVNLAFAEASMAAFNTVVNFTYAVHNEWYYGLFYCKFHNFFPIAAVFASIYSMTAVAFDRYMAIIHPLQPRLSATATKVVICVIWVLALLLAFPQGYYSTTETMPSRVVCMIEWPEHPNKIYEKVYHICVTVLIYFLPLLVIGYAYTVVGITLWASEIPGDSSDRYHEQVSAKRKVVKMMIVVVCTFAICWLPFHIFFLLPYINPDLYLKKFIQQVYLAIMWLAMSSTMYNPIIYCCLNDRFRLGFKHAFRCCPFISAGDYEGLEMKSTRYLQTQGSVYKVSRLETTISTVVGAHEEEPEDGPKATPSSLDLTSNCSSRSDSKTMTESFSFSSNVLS
# T4 sequence (P43140 whole entry): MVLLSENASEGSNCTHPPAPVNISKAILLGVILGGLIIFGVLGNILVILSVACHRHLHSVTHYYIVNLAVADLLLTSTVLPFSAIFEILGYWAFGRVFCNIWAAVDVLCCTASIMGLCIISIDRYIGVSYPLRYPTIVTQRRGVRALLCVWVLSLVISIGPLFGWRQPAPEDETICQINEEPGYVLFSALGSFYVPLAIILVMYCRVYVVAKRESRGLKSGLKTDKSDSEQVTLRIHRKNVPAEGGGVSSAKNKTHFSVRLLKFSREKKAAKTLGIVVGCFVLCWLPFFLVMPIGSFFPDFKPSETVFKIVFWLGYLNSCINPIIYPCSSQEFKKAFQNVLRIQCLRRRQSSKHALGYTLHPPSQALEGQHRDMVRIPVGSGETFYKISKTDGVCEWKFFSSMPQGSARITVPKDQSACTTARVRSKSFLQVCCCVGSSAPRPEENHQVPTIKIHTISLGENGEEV
# T5 sequence (P30542 whole entry): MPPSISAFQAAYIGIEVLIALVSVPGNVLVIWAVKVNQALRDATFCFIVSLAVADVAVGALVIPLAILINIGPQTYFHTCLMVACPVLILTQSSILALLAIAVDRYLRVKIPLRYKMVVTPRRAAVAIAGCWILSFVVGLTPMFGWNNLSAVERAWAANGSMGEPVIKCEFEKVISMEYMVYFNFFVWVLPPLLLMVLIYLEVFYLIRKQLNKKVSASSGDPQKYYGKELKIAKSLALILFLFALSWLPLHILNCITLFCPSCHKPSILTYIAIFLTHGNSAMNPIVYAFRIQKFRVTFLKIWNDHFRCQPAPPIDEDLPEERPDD
compound,measurement,setting,value
"Cc1cc(NC(=O)Nc2ccc(F)c(F)c2)n(-c2ccccc2)n1 [VU0456810, 1-(3,4-difluorophenyl)-3-(3-methyl-1-phenyl-1H-pyrazol-5-yl)urea]",% Inhibition,Nicotinic acetylcholine,7%
same,EC50 Thallium Flux,GIRK2/3,complete lack of efficacy; also recorded: Inactive
same,EC50 Thallium Flux,GIRK2/3; listed as 2,inactive
same,inhibition at 10 µM,Adrenergic α2A,4%
same,inhibition at 10 µM,Tachykinin NK1,3%
same,% Inhibition,Purinergic P2Y,4%
same,% Inhibition,Rolipram (PDE4),11%
same,inhibition at 10 µM,Adrenergic α1A,4%
same,inhibition at 10 µM,Adenosine A1,6%
same,inhibition at 10 µM,GABAB1A,11%
same,inhibition at 10 µM,EGF,-2%
